Measured values from patent US8372455B2, “Cosmetic composition with anti-free radical activity” (LVMH Recherche, priority 2006, dated 2013).

Test system: human keratinocytes (HaCaT)
Experiment: Antioxidizing power (free radical scavenging) in H2O2-treated keratinocytes with the DCFH-DA fluorescent probe
Type: cell-based
Settings: 24 h treatment, 0.05 mg/ml ebselen, extract of Emblica, extract of Edelweiss, 0.1 μg/ml tocotrienol, idebenone, N-acetylcysteine, N=6, FIG. 1
Source text: To do this, the inventors used an in vitro test on a model of human keratinocytes, which consisted in the in situ generation of free radicals in the presence and absence of substances with anti-free radical activity, and then in quantification, with the aid of a fluorescent probe of the type dichlorofluorescein diacetate (DCFH-DA), of the free radicals still present in the cells. This probe is well known to those skilled in the art and its use makes it possible to measure the amount of free radicals present as a function of the fluorescence signal emitted.
The antioxidizing power according to the invention, which corresponds in practice to the free radical scavenging power of each substance with anti-free radical activity or an association of such substances, is obtained using the following formula (A): antioxidizing power=([…])×100 (A) in which: Δ control=difference in fluorescence values between the control not treated with an active substance or an association of such substances, and the control treated with the reference oxidizing agent hydrogen peroxide (H2O2); Δ test=difference in fluorescence values between the control treated with an active substance or an association of active substances, and the control treated with H2O2.
In practice, the value of Δ control represents the situation where the oxidation is greatest. This value is to be considered as that of 100% oxidation. It is then possible, by taking the ratio ([…])×100, to determine the percentage oxidation in the presence of an active substance or an association of such active substances. The antioxidizing power can then be calculated as the difference from the maximum value of 100, corresponding to application of the above formula. […]
The fluorescence emitted is then directly proportional to the concentration of free radicals that has reacted in the medium.
Thus, in the presence of a substance with anti-free radical activity, the DCFH present in the medium encounters fewer free radicals and the value of the fluorescence signal emitted decreases as a consequence. […]

Compound | protective power (antioxidizing power) of individual substances with anti-free radical activity
CC(=O)N[C@@H](CS)C(=O)O [N-acetylcysteine] | weakly protective
COC1=C(OC)C(=O)C(CCCCCCCCCCO)=C(C)C1=O [idebenone, 2,3-dimethoxy-6-(10-hydroxydecyl)-5-methyl-1,4-benzo-quinone] | weakly protective
alpha-tocotrienol | relatively high protective power
